Results from publication PMC4714926 (ACS chemical biology, 2015).

Key:
GFP-HIV protease fusion = experiment: GFP-HIV protease reporter assay in HEK293 T-REx cells; type: cell-based, human
recombinant human FKBP12 = recombinant human FKBP12 (Homo sapiens, UniProt P62942); experiment: PAMPA partitioning with recombinant human FKBP12 on one side of the membrane; settings: compared to control wells
FKBP = settings: read-out: KD for FKBP; cited from earlier work

Chain of recombinant human FKBP12 (P62942 whole entry): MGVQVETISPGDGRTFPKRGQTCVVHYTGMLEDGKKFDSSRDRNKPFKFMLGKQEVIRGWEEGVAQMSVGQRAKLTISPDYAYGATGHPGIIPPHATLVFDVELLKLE

Compound: COc1ccc(S(=O)(=O)N(CC(C)C)C[C@@H](O)[C@H](Cc2ccccc2)NC(=O)O[C@H]2CCOC2)cc1 [4-OMe-amprenavir]
- rescue of cell viability and GFP fluorescence (GFP-HIV protease fusion; 5 μM, after doxycycline induction, fluorescence and light microscopy): could rescue cell viability and increase fluorescence
- dependence of GFP fluorescence on mCherry-FKBP12 over-expression (GFP-HIV protease fusion; transient mCherry-FKBP12 over-expression, microscopy): did not show this dependence on mCherry-FKBP12 expression

Compound: CC(C)CN(C[C@@H](O)[C@H](Cc1ccccc1)NC(=O)O[C@H]1CCOC1)S(=O)(=O)c1ccc(N)cc1 [amprenavir]
- enhancement of partitioning by FKBP12 (recombinant human FKBP12): unaffected by FKBP12

Compound: C=CC[C@@H]1/C=C(\C)C[C@H](C)C[C@H](OC)[C@H]2O[C@@](O)(C(=O)C(=O)N3CCCC[C@H]3C(=O)O[C@H](/C(C)=C/[C@@H]3CC[C@@H](O)[C@H](OC)C3)[C@H](C)[C@@H](O)CC1=O)[C@H](C)C[C@@H]2OC [FK506]
- Kd (FKBP): ~0.6 nM
